The results in this text go back to ChEMBL document CHEMBL3763030, “Structure-Activity Relationship of Azaindole-Based Glucokinase Activators” (J Med Chem, 2016).

The structures appear in SMILES notation.

The data set is described as follows: Stability in C57BL/6J mouse microsomes. The format is ADME, Microsome.
The molecule `C[S+]([O-])c1ccc(C(CC2CCCC2)c2cc3cccnc3[nH]2)cc1Cl` (stereo in doubt; 16c) yielded a Stability of 40%.

Regarding `C[S+]([O-])c1ccc(C(CC2CCCC2)c2cc3cccnc3[nH]2)cc1Cl` (stereo in doubt; 16a), the Stability is 50%.

With `CS(=O)(=O)c1ccc([C@@H](C[C@H]2CCC(=O)C2)C(=O)Nc2cnccn2)cc1Cl` [PIRAGLIATIN], the Stability amounted to 85%.
